Experiments:
[1] = test system: Staphylococcus aureus; experiment: Zones of inhibition analysis of nitrile rubber film swatches on seeded agar; format: cell-based; settings: for antibacterial properties of polymer film (in words): incorporated into the nitrile rubber latex dip bath; for sides of the film exhibiting antibacterial activity (in words): PHMB in coagulation layer, triclosan in nitrile rubber
Procedure: Tests were carried out in order to assess which combination of biocidal agents were compatible with the glove manufacturing process and gave the best antimicrobial performance. Small rectangles of nitrile rubber latex were prepared by dipping clean microscope slides into warm coagulant solution, withdrawing them and drying them in an oven at 110° C. The slides were allowed to cool before dipping into the nitrile rubber latex dispersion. They were withdrawn, allowed to drain, and placed in an oven at 110° C. After cooling the layer of cured nitrile rubber was carefully removed from the microscope slide and sent for testing to determine their antimicrobial properties. Active ingredients were incorporated into the coagulant and nitrile polymer latex dispersion as appropriate.
The qualitative measure of their antibacterial performance was carried out by zones of inhibition analysis. The procedure used was for each sample to be assayed against Staphylococcus aureus, a bacterium commonly found on the skin of humans, by comparing their zones of inhibition on an agar preparation.
Seeded agar plates were prepared by adding 0.1 ml of an overnight broth culture into a clean, sterile petri dish, adding approximately 20 ml of an agar preparation that had been sterilised and cooled to 45° C. before use. The selective agar used was Tryptone Soy Agar. The challenge organism was mixed into the agar by gentle swirling to provide a homogeneous suspension. The plates were allowed to set for approximately one hour in a cool dry place.
Swatches of the polymer glove material were cut to approximately 2 cm square and placed on the seeded agar. The petri dishes were then placed in an incubator overnight at 37° C. Migration of the chemicals toxic to the challenge organisms creates a zone around the edge of the swatch where growth of the challenge organism is inhibited. The relative distance of the zone inhibition from the edge of the swatch for each organism gives an indication of the antibacterial efficacy of the products.

[2] = cited from earlier work
[3] = Experiment 3, 0.1% added to coagulant solution
[4] = Experiment 3, 1.0% added to coagulant solution
[5] = Experiment 3, added to the calcium containing coagulant solution, agent on one side of the film
[6] = Experiment 2, 0.1% added to nitrile rubber
[7] = Experiment 2, 0.1% in nitrile rubber, compared with control sample 12B/088
[8] = Experiment 4, incorporated into the coagulation layer / coagulant solution

Molecule	ZONE OF INHIBITION [1, 3]	ZONE OF INHIBITION [1, 4]	antibacterial performance (in words) [1, 5]	antibacterial properties of polymer film (in words) ([1]; Experiment 1)	ZONE OF INHIBITION [1, 6]	antibacterial effectiveness (in words) [1, 7]	sides of the film exhibiting antibacterial activity (in words) ([1]; Experiment 4)	antibacterial performance (in words) [1, 8]	other results
[H]/N=C(\N/C(=N/[H])NCCCCCCNC(=N)NC(=N)Nc1ccc(Cl)cc1)Nc1ccc(Cl)cc1 [Chlorhexidine]	11 mm	18 mm	effective antibacterial performance						
Cn1sc(Cl)cc1=O [Methylchloroisothiazolinone]									antibacterial effectiveness (in words) ([1]; Experiment 3, 0.5%): effective antibacterial agent; ZONE OF INHIBITION ([1]; Experiment 3, 0.5% added to nitrile rubber): 15 mm
O=c1[nH]sc2ccccc12 [Proxel (BIT), 1,2-Benzisothiazol-3((2H)-one]				exhibited antibacterial properties	15 mm	significantly more effective			ZONE OF INHIBITION ([1]; Experiment 1, 0.15% added to nitrile rubber): 9 mm
Oc1cc(Cl)ccc1Oc1ccc(Cl)cc1Cl [Triclosan]	10 mm		exhibited antibacterial performance but was not as effective as when it was incorporated into the nitrile rubber layer	exhibited antibacterial properties	20 mm	significantly more effective	both sides of the film exhibit antibacterial activity		ZONE OF INHIBITION ([1]; Experiment 1, 0.05% added to nitrile rubber): 15 mm; ZONE OF INHIBITION ([1]; Experiment 2, 0.25% added to nitrile rubber): 18 mm; ZONE OF INHIBITION ([1]; Experiment 3, 0.05% added to nitrile rubber): 12 mm; antibacterial effectiveness (in words) ([1]; Experiment 3, 0.05% in the nitrile rubber film (run 12C/064)): effective; ZONE OF INHIBITION ([1]; Experiment 3, 0.1% added to nitrile rubber): 17 mm; ZONE OF INHIBITION ([1]; Experiment 3, 0.5% added to coagulant solution): 12 mm; ZONE OF INHIBITION ([1]; Experiment 4, 0.1% added to nitrile rubber): 16 mm; antibacterial performance (in words) ([1]; Experiment 4, incorporated into the nitrile rubber): good antibacterial performance; solubility in water [2]: 0.0012 g per liter
Benzalkonium chloride [BTC 50E]		30 mm	effective antibacterial performance					good results	ZONE OF INHIBITION ([1]; Experiment 3, 0.22% added to coagulant solution): 14 mm; ZONE OF INHIBITION ([1]; Experiment 4, 0.25% added to coagulant solution): 8 mm
Poly(hexamethylene biguanide) [PHMB]							only one side of the polymer film exhibits antibacterial performance	good results	ZONE OF INHIBITION ([1]; Experiment 4, 0.3% added to coagulant solution, face down as normal): 16 mm; ZONE OF INHIBITION ([1]; Experiment 4, 0.3% added to coagulant solution, film placed face up on the agar plate, biocide not on the side on the agar gel): 5 mm
